Data reported in patent US11298362B2, “Combination therapy with Notch and CDK4/6 inhibitors for the treatment of cancer” (Eli Lilly and Company, priority 2016, dated 2022).
One block for each compound: values may come before it.

Key:
[1] = tested on: NCI-H2122 xenograft; test: Human NCI-H2122 xenograft tumor growth in athymic nude mice; type: in vivo
Experimental: (§1) NCI-H2122 is a human adenocarcinoma non-small cell lung cancer cell line (ATCC® as CRL-5985). The cells are grown in culture media at 37° C. in 5% CO2 with humidity in the atmosphere. Cell culture media for NCI-H2122 is RPMI-1640 with 2 mM L-glutamine, 10 mM 2-[4-(2-hydroxyethyl)piperazin-1-yl]ethanesulfonic acid (HEPES), 1 mM sodium pyruvate, 4500 mg/L glucose, 1500 mg/L sodium bicarbonate, and 10% fetal bovine serum (FBS).
To evaluate in vivo efficacy 5×10^6 NCI-H2122 cells in a 1:1 Matrigel® mix (0.2 mL volume) are implanted by subcutaneous injection in the hind leg of 6-8 weeks of age athymic nude female mice (Harlan Laboratories). Just before implantation animals are irradiated ([…]). Mice are fed ad libitum on normal chow. Treatment is initiated with oral administration (gavage) of Compound A in 1% sodium carboxymethylcellulose (Na-CMC) in 0.25% Tween®-80, or Compound B in 1% hydroxyethyl cellulose (HEC) in phosphate buffer pH 2.0 or their respective vehicle in 0.2 mL volume when tumor size reaches to 150±50 mm^3. Compound A is administered at 5 or 8 mg/kg on a Wednesday, Friday, and Monday schedule (TIW) for 2 weeks and Compound B is administered at 25 or 50 mg/kg daily for 14 days.
Tumor growth and body weight are monitored over time to evaluate efficacy and signs of toxicity. Bidimensional measurements of tumors are performed twice a week and tumor volumes are calculated based on the following formula: (Tumor Volume)=[(L)×(W2)×(Π/6)] where L is mid-axis length and W is mid-axis width. Tumor volume data are transformed to a log scale to equalize variance across time and treatment groups. The log volume data are analyzed with a two-way repeated measures analysis of variance by time and treatment using the MIXED™ procedures in SAS™ software (version 8.2). The correlation model for the repeated measures is spatial power. Test Groups are: • 1: 1% HEC in 25 mM Phosphate Buffer, pH 2, QD×14, PO/1% CMC/0.25% Tween 80/0.05% Antifoam, /W-F-M×2, PO • 3: Compound B, 50 mg/kg, QD×14, PO • 4: Compound A, 5 mg/kg, W-F-M×2, PO • 5: Compound A, 8 mg/kg, W-F-M×2, PO • 7: Compound B, 50 mg/kg, QD×14, PO/Compound A, 5 mg/kg, W-F-M×2, PO • 8: Compound B, 50 mg/kg, QD×14, PO/Compound A, 8 mg/kg, W-F-M×2, PO Group 7 and a Group 9 were combined and labelled group 7, because they received the same treatment regimen contrary to testing procedures. […] Group 2 is not shown as it was Compound B monotreatment at the same treatment regimen as Compound B in Group 6 combination treatment.
Using the repeated measures analysis previously described, a contrast statement is used to test for an interaction effect on study day 27, using the two specific treatments that were combined (Group 7).

[2] = tested on: pRB (phospho-ser780-Rb), total RB, Topo IIa and pHH3 in H2122 cells; test: Cell cycle biomarker expression by immunoblotting in H2122 cells; type: cell-based, human
Experimental: Time Course Study: NCI-H441 and NCI-H2122 NSCLC cell lines are treated for 4 or 24 hours with 1 μM of Compound A and harvested to evaluate effects on cell cycle biomarker expression which includes the cell cycle inhibitors p21 and p27 as well as markers for cell cycle progression including phospho-histone H3 (pHH3) (a marker for M-phase), Topo 2A (a marker for S-phase), phospho_ser780-RB (a marker for G1 and, as well as, for CDK4/6 inhibition) and cyclin Dl. […] […] Cells are harvested after 24 hours of treatment and evaluated for expression of various cell cycle biomarkers by immunoblotting. […] RB is the direct kinase target of CDK4/6 so inhibition of pRB provides a direct measure of CDK4/6 inhibition. The inhibition of Topo IIA and pHH3 are indicative of the inhibition of cell cycle progression through S and M phases of the cell cycle, respectively. […] The same study is carried out in the H441 cell line. […] RB is the direct kinase target of CDK4/6 so inhibition of pRB provides a direct measure of CDK4/6 inhibition. The inhibition of Topo IIA and pHH3 are indicative of the inhibition of cell cycle progression through S and M phases of the cell cycle, respectively.

[3] = tested on: NCI-H2122; test: Cell growth inhibition by CellTiter-Glo assay, NCI-H2122; type: cell-based; settings: Homo sapiens, Compound B alone, 48 hours
Experimental: (§2) The non-small cell lung cancer (NSCLC) lines NCI-H441 (ATCC® as HTB-174) and NCI-H2122 (ATCC® as CRL-5985) are grown in RPMI-1640 medium supplemented with 2 mM L-glutamine, 10 mM HEPS, 1 mM sodium pyruvate, 4500 mg/L glucose, 1500 mg/L sodium bicarbonate, and 10% fetal bovine serum (FBS) at 37° C. in 5% CO2 with humidity in the atmosphere. The cells are subcultured according to ATCC procedures and treated with increasing concentrations of abemaciclib mesylate (Compound B) either in the presence or absence of 1 μM of Compound A. The growth of the cells is quantified 48 hours later by a CellTiter-Glo assay (Promega). Growth inhibition at each concentration is calculated and IC50 values are determined from the 4-parameter concentration-response curves.
as §1

[4] = tested on: NCI-H441; test: Cell growth inhibition by CellTiter-Glo assay, NCI-H441; type: cell-based; settings: Homo sapiens, Compound B alone, 48 hours
Experimental: as §2

[5] = Compound B 0.05-0.8 μM with or without 1 μM Compound A added 1 day before Compound B, 24 hours after addition
[6] = Compound B 0.05-0.8 μM with or without 1 μM Compound A added simultaneously, 24 hours

SMILES: C[C@H](NC(=O)CCC(F)(F)F)C(=O)N[C@@H]1C(=O)N(CCO)c2ncccc2-c2ccccc21 [Compound A, 4,4,4-trifluoro-N-[(1S)-2-[[(7S)-5-(2-hydroxyethyl)-6-oxo-7H-pyrido[2,3-d][3]benzazepin-7-yl]amino]-1-methyl-2-oxo-ethyl]butanamide]
Geometric Mean tumor volume ([1]; Group 04: Compound A 5 mg/kg W-F-M×2 PO, study day 6): 110.18 mm^3
Geometric Mean tumor volume ([1]; Group 04: Compound A 5 mg/kg W-F-M×2 PO, study day 9): 129.04 mm^3
Geometric Mean tumor volume ([1]; Group 04: Compound A 5 mg/kg W-F-M×2 PO, study day 13): 189.14 mm^3
Geometric Mean tumor volume ([1]; Group 04: Compound A 5 mg/kg W-F-M×2 PO, study day 16): 289.03 mm^3
Geometric Mean tumor volume ([1]; Group 04: Compound A 5 mg/kg W-F-M×2 PO, study day 20): 447.05 mm^3
Geometric Mean tumor volume ([1]; Group 04: Compound A 5 mg/kg W-F-M×2 PO, study day 23): 585.69 mm^3
Geometric Mean tumor volume ([1]; Group 04: Compound A 5 mg/kg W-F-M×2 PO, study day 27): 761.24 mm^3
Geometric Mean tumor volume ([1]; Group 05: Compound A 8 mg/kg W-F-M×2 PO, study day 6): 127.60 mm^3
Geometric Mean tumor volume ([1]; Group 05: Compound A 8 mg/kg W-F-M×2 PO, study day 9): 165.23 mm^3
Geometric Mean tumor volume ([1]; Group 05: Compound A 8 mg/kg W-F-M×2 PO, study day 13): 199.00 mm^3
Geometric Mean tumor volume ([1]; Group 05: Compound A 8 mg/kg W-F-M×2 PO, study day 16): 301.93 mm^3
Geometric Mean tumor volume ([1]; Group 05: Compound A 8 mg/kg W-F-M×2 PO, study day 20): 492.37 mm^3
Geometric Mean tumor volume ([1]; Group 05: Compound A 8 mg/kg W-F-M×2 PO, study day 23): 481.31 mm^3
Geometric Mean tumor volume ([1]; Group 05: Compound A 8 mg/kg W-F-M×2 PO, study day 27): 570.39 mm^3
cell cycle biomarker expression, time course study ([2]; 1 μM Compound A, 24 hours of treatment): Marginal reductions of pHH3, Topo2A, pRB and total RB
cell cycle biomarker expression, concentration-response study [2, 5]: no effect on the expression of these biomarkers
cell cycle biomarker expression, concentration-response study [2, 6]: no effect on the expression of these biomarkers

IC50 [3]: 450 nM
IC50 [4]: 970 nM
SMILES: CCN1CCN(Cc2ccc(Nc3ncc(F)c(-c4cc(F)c5nc(C)n(C(C)C)c5c4)n3)nc2)CC1 [Compound B, N-[5-(4-ethyl-piperazin-1-ylmethyl)-pyridin-2-yl]-[5-fluoro-4-(7-fluoro-3-isopropyl-2-methyl-3H-benzoimidazol-5-yl)-pyrimidin-2-yl]-amine, reference compound]
Geometric Mean tumor volume ([1]; Group 03: Compound B 50 mg/kg QD×14 PO, study day 6): 136.94 mm^3
Geometric Mean tumor volume ([1]; Group 03: Compound B 50 mg/kg QD×14 PO, study day 9): 188.32 mm^3
Geometric Mean tumor volume ([1]; Group 03: Compound B 50 mg/kg QD×14 PO, study day 13): 191.75 mm^3
Geometric Mean tumor volume ([1]; Group 03: Compound B 50 mg/kg QD×14 PO, study day 16): 321.32 mm^3
Geometric Mean tumor volume ([1]; Group 03: Compound B 50 mg/kg QD×14 PO, study day 20): 376.59 mm^3
Geometric Mean tumor volume ([1]; Group 03: Compound B 50 mg/kg QD×14 PO, study day 23): 489.72 mm^3
Geometric Mean tumor volume ([1]; Group 03: Compound B 50 mg/kg QD×14 PO, study day 27): 491.92 mm^3
cell cycle biomarker expression, concentration-response study [2, 5]: concentration-dependent inhibition of pRB (phospho-ser780-Rb), total RB, Topo IIa and pHH3
cell cycle biomarker expression, concentration-response study [2, 6]: concentration-dependent inhibition of pRB (phospho-ser780-Rb), total RB, Topo IIa and pHH3
